Data set [1] relates to skin of normal adults. In words: Test for skin irritation property (closed patch test). The class given is in vivo, human. The conditions noted are these: closed patch test 24 hours, 20 adults. As for the experimental part:
In order to examine the skin irritation of the compound of formula (1), a patch test for the skin of normal adults was carried out. As the carrier, capryl caprylic triglyceride or the conventional O/W formulation was used, and twenty (20) adults per a group were tested for 24 hours.
The conventional O/W formulation used in the present experiment was prepared according to the following procedure.
Each of the aqueous part of Nos. 1–6 and the oily part of Nos. 7–13 as shown in the following Table 1 was heated to 75–80° C. to be thoroughly dissolved. The oily part was slowly added to the aqueous part and emulsification was performed for 5 minutes at 75–80° C. in a homomixer of 3000rpm. During the emulsification, the mixture was neutralized by the neutralizing agent of No. 14. After the first emulsification, the mixture was cooled, the retinal retaliate and fragrance of Nos. 15–16 were added at 50–55° C., and then the second emulsification was carried out for 3 minutes in a homomixer of 3000rpm. The mixture was cooled again to 27–30° C. to prepare the composition of O/W formulation.
From the experimental results, the irritation indexes were calculated according to the following Equation 1 and the results are represented in the following Table 2. Irritation index={Σ(Test Value×Number of Examinees Corresponding to the Test Value)/(Total Examinees×The Maximum Test Value)×100 Equation 1
Test Value +++: 5, ++: 4, +: 3, +−: 2, −:1
The degree of irritation was determined according to the following standards:
1.9 or less: Minute irritation, 2.0–2.9: Weak irritation, 3.0–3.9: Moderate irritation, 4.0 or more: Strong irritation

Data set [2] in a line: Thermal stability test (quantitative HPLC). The class given is physicochemical. The conditions noted are these: humidity 58%, in % (unit assumed). As for the experimental part: In order to compare thermal stability of the compound of formula (1) with retinol, phase stability for 1 month in a thermohygrostat (humidity: 58%) of room temperature, 40° C., and 4° C. was examined by a quantitative HPLC analysis under the following condition.
1) Column: Capcellpak UG 120 (5 μm, 4.6 mm*150 mm, shiseido, Japan)
3) Detector: UV(PDA 326 nm), • Fluorescence: Ex: 326nrm, Em: 460 nm

Data set [3] addresses T1, RAR β (Homo sapiens, UniProt P10826).
T1 construct: expressed in transfected cells; host or cells: HaCaT
T1 sequence (P10826 1-455): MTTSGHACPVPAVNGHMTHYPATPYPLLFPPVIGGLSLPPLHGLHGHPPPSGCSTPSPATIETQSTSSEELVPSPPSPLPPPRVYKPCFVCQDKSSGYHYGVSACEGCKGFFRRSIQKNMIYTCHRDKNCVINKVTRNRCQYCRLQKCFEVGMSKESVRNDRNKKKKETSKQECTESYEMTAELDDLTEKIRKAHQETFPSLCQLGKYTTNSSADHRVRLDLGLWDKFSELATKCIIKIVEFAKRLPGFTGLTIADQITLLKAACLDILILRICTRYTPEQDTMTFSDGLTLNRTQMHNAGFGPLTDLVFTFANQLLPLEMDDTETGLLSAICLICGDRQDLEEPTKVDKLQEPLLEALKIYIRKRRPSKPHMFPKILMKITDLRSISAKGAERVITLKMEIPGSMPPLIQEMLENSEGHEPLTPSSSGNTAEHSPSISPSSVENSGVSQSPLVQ
As to the kind of experiment: Activity for RAR β (CAT reporter in HaCaT cells). The class given is cell-based. The conditions noted are these: 1 μM, CAT ELISA. Here is the method: The effect of the retinol derivatives on the activity of RAR and RXR was examined as follows.
Experimental procedure: Recombinant gene of DR5-tk-CAT or DR1-tk-CAT comprising DR1 or DR5 as a response element of RAR/RXR, […] promoter, and CAT (chloramphenicol acetyl transferase) was suitably combined with a plasmid DNA that expresses RAR α, β, γ and cotransfected to HaCaT cell line, a skin cancer cell line, with Lipofectamin (GibcoBRL). Then, the cells were incubated in DMEM/10% FBS medium for 1 day, retinol derivative was added in a concentration of 1 μM, and the cells were incubated again for 1 day under the condition of 5% CO2 and 37° C. The cells were washed with phosphate-buffered salione (PBS). Proteins were extracted from each cell, the activity of β-galactosidase was assayed, and the amount of protein was measured to determine the transfection efficiency. Further, the degree of transcription for RAR or RXR was analyzed by CAT ELISA (Roche Molecular Biochemicals, Mannheim, Germany).
A general note: ELISA stands for enzyme-linked immunosorbent assay.

Data set [4] relates to AP-1 (comprising c-Jun protein). In words: Inhibition of activity of AP-1 protein (Coll-CAT collagenase promoter reporter in HaCaT cells). The conditions noted are these: for inhibition of the expression of collagenase: cells treated together with RAR α (c-Jun expressed). The class given is cell-based. As for the experimental part:
AP-1 (comprising c-Jun protein) is a transcription factor inducing the expression of collagenase that is a major cause of skin wrinkles. […] Therefore, studies thereabout were carried out in a similar manner to Experiment 6 as follows.
Experimental procedure: CAT reporter (Coll-CAT) having the collagenase promoter wherein AP-1 response element (TRE) is contained, was transfected into HaCaT cell line, a skin cancer cell line, using a liposome. Then, the degree of inhibition against the activity of AP-1 by retinol derivatives was measured through CAT ELISA in a similar manner to Experiment 6. Further, the effect of retinol derivatives on the transcriptional activity of c-Jun (a protein that induces transfer of cancer, skin aging and inflammation, and consists of homologous isomers or heterologous isomers), a constitutional element of AP-1, was examined by cotransfecting c-Jun or RAR α expression vector.

The mark [5] stands for this setting: 0.075% in C.C.T (capryl caprylic triglyceride).
Where [6] appears, read: Condition of expression: c-Jun + RAR α, HaCaT, Coll-CAT, untreated = 8.6.
[7] abbreviates: Condition of expression: c-Jun, HaCaT, Coll-CAT, untreated = 8.6.
Setting [8] is: Condition of expression: — (no c-Jun or RAR α vector), HaCaT, Coll-CAT, untreated = 1.0.

SMILES strings stand for the structures. “Also recorded” adds a separate entry of the source.

Consider `CC1=C(/C=C/C(C)=C/C=C/C(C)=C/CO)C(C)(C)CCC1` [Retinol], for which the “Irritation Index” value in data set [1] (setting [5]) was 2.5. Further, in data set [1] (0.075% in C.C.T), the “Degree of Irritation” value is recorded as “Weak irritation (2.0–2.9: Weak irritation)”. The “Thermal stability (amount by quantitative HPLC)” value (shortened to “Thermal stability”) is 100 in data set [2] (After 1 week, 4° C.); 56.08 in data set [2] (After 1 week, 40° C.); 74.27 in data set [2] (After 1 week, r.t.); 98.23 in data set [2] (After 2 weeks, 4° C.); 43.26 in data set [2] (After 2 weeks, 40° C.); 65.23 in data set [2] (After 2 weeks, r.t.). In addition, the “Thermal stability” value was determined as 95.52 in data set [2] (After 4 weeks, 4° C.); 34.51 in data set [2] (After 4 weeks, 40° C.); 52.23 in data set [2] (After 4 weeks, r.t.); 100 in data set [2] (Initial value, 4° C.); 100 in data set [2] (Initial value, 40° C.); 100 in data set [2] (Initial value, r.t.). For the same molecule, the “Relative activity against RAR β” value in data set [3] (Control = 1.0) turned out to be 1.3. Besides, the “Relative inhibition against the expression of collagenase” value in data set [4] (setting [6]) is given as 5.8; in data set [4] (setting [7]) it was 7.3; in data set [4] (setting [8]), 0.8. Further, the “inhibition of the expression of collagenase” value in data set [4] is recorded as “about 33%”.

As to `CC1=C(/C=C/C(C)=C/C=C/C(C)=C/COC(=O)/C=C(C)/C=C/C=C(C)/C=C/C2=C(C)CCCC2(C)C)C(C)(C)CCC1` [Compound of formula (1), Retinyl retinoate], the “Irritation Index” value worked out at 1.3 in data set [1] (setting [5]), 1.3 in data set [1] (0.3% in C.C.T), 2.0 in data set [1] (0.3% in O/W Formulation) and 1.3 in data set [1] (0.55% in C.C.T). Moreover, the “Degree of Irritation” value is “Minute irritation (1.9 or less: Minute irritation)” in data set [1] (0.075% in C.C.T), “Minute irritation (1.9 or less: Minute irritation)” in data set [1] (0.3% in C.C.T), “Weak irritation (2.0–2.9: Weak irritation)” in data set [1] (0.3% in O/W Formulation) and “Minute irritation (1.9 or less: Minute irritation)” in data set [1] (0.55% in C.C.T). Moreover, the “Thermal stability” value in data set [2] (After 1 week, 4° C.) was 100; in data set [2] (After 1 week, 40° C.), 74.46; in data set [2] (After 1 week, r.t.) it was 92.77; in data set [2] (After 2 weeks, 4° C.), 100; in data set [2] (After 2 weeks, 40° C.) it was 70.25; in data set [2] (After 2 weeks, r.t.), 90.45. For the same molecule, the “Thermal stability” value in data set [2] (After 4 weeks, 4° C.) amounted to 99.65; in data set [2] (After 4 weeks, 40° C.), 68.23; in data set [2] (After 4 weeks, r.t.) it was 89.21; in data set [2] (Initial value, 4° C.), 100; in data set [2] (Initial value, 40° C.) it was 100; in data set [2] (Initial value, r.t.), 100. Further, the “Relative activity against RAR β” value is reported as 1.5 in data set [3] (Control = 1.0) and “lower activity than retinoic acid but higher one than retinol; also recorded: low activity” in data set [3] (Control = 1.0, listed as compound of formula (1)). Also, the figures for the “Relative inhibition against the expression of collagenase” value in data set [4] (setting [6]), in data set [4] (setting [7]) and in data set [4] (setting [8]) were 4.1, 6.7 and 0.7, respectively. Further, the “effect on / inhibitory activity against c-Jun (AP-1), in words” value in data set [4] (HaCaT, Coll-CAT, c-Jun / RAR α cotransfection) is “lower inhibitory activity against c-Jun than retinoic acid, but higher one than retinol”. The “inhibition of the expression of collagenase” value in data set [4] is given as “about 52%”.

These data come from patent US7173062B2, “Method for the improvement of skin wrinkles using retinyl retinoate” (Enprani Co., Ltd., priority 2001, dated 2007).
